Laboratory results from patent EP0471756B1, “SACCHARIN DERIVATIVES USEFUL AS PROTEOLYTIC ENZYME INHIBITORS AND PREPARATION THEREOF” (priority 1989, dated 1990).

Legend:
[1] = biological target: T1, human leukocyte elastase (HLE) (Homo sapiens, UniProt P08246); assay: Inactivation of human leukocyte elastase: kon measured, Ki* = koff/kon calculated; assay type: biochemical; details: Elastase; for kinact/KI: rate of inactivation kon = kobs/[I], value is kon x 10^-3, read-out: 10^-3 x kon; for Ki: Ki* = koff/kon, not a truly reversible inhibition constant
T1 sequence (P08246 30-267): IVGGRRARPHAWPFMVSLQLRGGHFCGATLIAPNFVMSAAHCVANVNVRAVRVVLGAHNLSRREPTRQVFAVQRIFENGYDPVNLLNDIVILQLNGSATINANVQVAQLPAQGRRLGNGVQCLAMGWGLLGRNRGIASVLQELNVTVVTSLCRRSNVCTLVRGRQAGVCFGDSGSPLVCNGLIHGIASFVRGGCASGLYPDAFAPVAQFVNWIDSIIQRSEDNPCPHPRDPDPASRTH
Method: (§1) Thus, instead of measuring a Ki, a Ki* is calculated which is defined as the ratio of the koff/kon, the rate of reactivation of the enzyme to the rate of inactivation of the enzyme. The values of koff and kon are measured and Ki* is then calculated.
(§2) The rate of inactivation, kon, of enzymatic activity was determined for the compounds tested by measuring the enzyme activity of an aliquot of the respective enzyme as a function of time after addition of the test compound. […] The rate of inactivation is then equal to kon =(kobs)/([I]) [formula] where [I] is the concentration of the inhibiting compound.
(§3) The reactivation constant, koff, is similarly determined and the inhibition constant, Ki*, is then calculated as Ki * = koff /kon [formula]

α-Chymotrypsin = α-Chymotrypsin (Bos taurus, UniProt P00766); assay: Inactivation of α-chymotrypsin: kon measured, Ki* = koff/kon calculated; assay type: biochemical; details: rate of inactivation kon = kobs/[I], value is kon x 10^-3
Method: as §1, §2, §3

| Structure (SMILES) | kinact/KI [1] | kinact/KI (α-Chymotrypsin) | Ki [1] |
| --- | --- | --- | --- |
| CC(=O)OCN1C(=O)c2c(C)cccc2S1(=O)=O [Example 1, 2-acetoxymethyl-4-methylsaccharin] | 630 M⁻¹ s⁻¹ | 1200 M⁻¹ s⁻¹ |  |
| CC(=O)OCN1C(=O)c2c(Cl)cccc2S1(=O)=O [Example 2, 2-acetoxymethyl-4-chlorosaccharin] | 4900 M⁻¹ s⁻¹ | 2900 M⁻¹ s⁻¹ |  |
| O=C1c2c(Cl)cccc2S(=O)(=O)N1CCl [Example 3, 2-chloromethyl-4-chlorosaccharin] | 450000 M⁻¹ s⁻¹ | 5800 M⁻¹ s⁻¹ |  |
| O=C1c2c(Cl)cccc2S(=O)(=O)N1Cn1nnn(-c2ccccc2)c1=S [Example 5, 4-chloro-2-(4-phenyl-5-thioxotetrazolin-1-ylmethyl)saccharin] | 44000 M⁻¹ s⁻¹ | 6000 M⁻¹ s⁻¹ |  |
| CC(=O)Nc1cccc(-n2nnnc2SCN2C(=O)c3ccccc3S2(=O)=O)c1 [Example 6, 2-[1-(3-acetamidophenyl)-1H-tetrazol-5-ylthiomethyl]saccharin] | 5500 M⁻¹ s⁻¹ | 3700 M⁻¹ s⁻¹ |  |
| Cn1nnnc1SCN1C(=O)c2ccccc2S1(=O)=O [Example 8, 2-(1-methyl-1H-tetrazol-5-ylthiomethyl)saccharin] | 1000 M⁻¹ s⁻¹ | 2100 M⁻¹ s⁻¹ | 81 nM |
| O=C1c2ccccc2S(=O)(=O)N1C[S+]([O-])c1nnnn1-c1ccccc1 (stereo not shown) [Example 10, 2-(1-phenyl-1H-tetrazol-5-ylsulfinylmethyl)saccharin] | 7000 M⁻¹ s⁻¹ | 7000 M⁻¹ s⁻¹ |  |
| O=C1c2ccccc2S(=O)(=O)N1CS(=O)(=O)c1ccccc1 [Example 12, 2-(phenylsulfonylmethyl)saccharin] | 970 M⁻¹ s⁻¹ | 1100 M⁻¹ s⁻¹ |  |
| O=C1c2ccccc2S(=O)(=O)N1C[S+]([O-])c1ncccn1 (stereo not shown) [Example 13, 2-(2-pyrimidylsulfinylmethyl)saccharin] | 300 M⁻¹ s⁻¹ | 2600 M⁻¹ s⁻¹ |  |
| O=C1c2ccccc2S(=O)(=O)N1CS(=O)(=O)c1ncccn1 [Example 14, 2-(2-pyrimidylsulfonylmethyl)saccharin] | 600 M⁻¹ s⁻¹ | 2800 M⁻¹ s⁻¹ |  |
| O=C1c2c(-c3ccccc3)cccc2S(=O)(=O)N1CCl [Example 18, 2-chloromethyl-4-phenylsaccharin] | 1000 M⁻¹ s⁻¹ | 210 M⁻¹ s⁻¹ |  |
| O=C1c2ccccc2S(=O)(=O)N1CSc1nnc2ccccn12 [Example 30N] | 250 M⁻¹ s⁻¹ |  |  |
| O=C1c2ccccc2S(=O)(=O)N1CSc1nnnn1-c1cccnc1 [Example 30Q] | 1380 M⁻¹ s⁻¹ |  |  |
| O=C1c2ccccc2S(=O)(=O)N1Cn1nnn(-c2cccnc2)c1=S [Example 30R] | 2300 M⁻¹ s⁻¹ |  |  |
| Cn1nnc(SCN2C(=O)c3ccccc3S2(=O)=O)n1 [Example 30X] | 550 M⁻¹ s⁻¹ |  |  |
| CC(C)c1cccc2c1C(=O)N(Cn1nnn(-c3cccnc3)c1=S)S2(=O)=O [Example 30Z] | 70000 M⁻¹ s⁻¹ |  |  |
| O=C1c2ccc([N+](=O)[O-])cc2S(=O)(=O)N1CSc1nnnn1-c1ccccc1 [Example 31C] | 3400 M⁻¹ s⁻¹ |  |  |
| O=C1c2ccccc2S(=O)(=O)N1CS(=O)(=O)c1c(Cl)cccc1Cl [Example 32A, 2-(2,6-dichlorophenylsulfonylmethyl)saccharin] | 600 M⁻¹ s⁻¹ |  |  |
| O=C1c2ccccc2S(=O)(=O)N1CSc1nnc(SCCN2CCOCC2)s1 [Example 33, 2-(5-[2-(4-morpholinyl)ethylthio]-1,3,4-thiadiazol-2-ylthiomethyl)saccharin] | 3600 M⁻¹ s⁻¹ |  |  |
| CN(C)CCSc1nnc(SCN2C(=O)c3ccccc3S2(=O)=O)s1 [Example 33B, 2-(5-[2-(N,N-dimethylamino)ethylthio]-1,3,4-thiadiazol-2-ylthiomethyl)saccharin] | 4000 M⁻¹ s⁻¹ |  |  |
| O=C1c2ccccc2S(=O)(=O)N1CSc1nnc(SCCN2CCCCC2)s1 [Example 33C, 2-(5-[2-(1-piperidinyl)ethylthio]-1,3,4-thiadiazol-2-ylthiomethyl) saccharin] | 200 M⁻¹ s⁻¹ |  |  |
| O=C(O)Cn1nnnc1SCN1C(=O)c2ccccc2S1(=O)=O [Example 34, 2-[1-(2-carboxymethyl)-1H-tetrazol-5-ylthiomethyl]saccharin] | 400 M⁻¹ s⁻¹ |  |  |
| O=C(O)CCC(=O)Nc1cccc(-n2nnnc2SCN2C(=O)c3ccccc3S2(=O)=O)c1 [Example 35, 2-[1-(3-succinoylaminophenyl)-1H-tetrazol-5-ylthiomethyl]saccharin] | 3600 M⁻¹ s⁻¹ |  |  |
| CC(=O)Nc1ccc2c(c1)C(=O)N(CSc1nnnn1-c1ccccc1)S2(=O)=O [Example 37, 5-acetylamino-2-(1-phenyl-1H-tetrazol-5-ylthiomethyl)saccharin] |  |  | > 90000 nM |
| O=C1c2ccccc2S(=O)(=O)N1/C=C/CSc1nnnn1-c1ccccc1 [Example 38, trans-2-[3-(1-phenyl-1H-tetrazol-5-ylthio)-1-propenyl]saccharin] | 43000 M⁻¹ s⁻¹ |  |  |
